Results on four compounds are retold here after US20030198636A1, “Process for inhibiting complement activation via the alternative pathway” (priority 1997, published 2003).

As a reminder, the IC50 is the concentration at which inhibition is half-maximal.

Residues, ends and D or L forms follow the SMILES beside them. No end group written: not given here.

Experiment [1] has as its target T1, binding of properdin to C3b coated plates (Homo sapiens, UniProt P01024).
T1 construct: The resulting convertase proteolytically modifies C3, producing the C3b fragment
The conditions noted are these: peptides at 0-200 μg/ml; cited from earlier work.

Experiment [2] concerns C5b-9 membrane-attack complex (MAC) formation via the alternative pathway. The experiment in a line: Alternative pathway-dependent MAC assay on LPS-coated wells (ELISA). The format is biochemical, human. The conditions noted are these: peptides; ELISA as described in Example 3; read-out: IC50, inhibition of MAC formation. An excerpt:
The binding data of Examples 1 and 2 above reveal that the properdin monoclonal antibody prevents the binding of properdin to C3b and the functional C3 convertase (C3bBb). […] The final end product of this pathway is the C5b-9 membrane-attack complex (MAC). To analyze the effects of the properdin antibody on MAC formation via the alternative pathways, an assay was utilized in which bacterial LPS was used as a substrate to initiate the alternative complement pathway cascade.
Microtiter wells were coated with LPS (2 μg/50 μl per well) in VBS overnight at 4° C. Uncoated wells served as background controls. After aspirating the LPS solution, wells were treated with blocking solution and incubated with various concentrations of normal human serum. Following a 3 hour incubation at 37° C., deposited MAC was detected with mouse anti-human soluble C5b-9 monoclonal antibody (Quidel, Cat. No. A239) using standard ELISA methodologies essentially as described in the Examples above. The effect of the blocking antibody on the MAC formation was evaluated by adding various concentrations of blocking antibody to a fixed concentration of serum (4% in blocking solution). The amount of inhibition of soluble C5b-9 formation was determined using the antibody detection system described in the Examples above.

Experiment [3] concerns the target T2, properdin binding to C3bBb (Homo sapiens, UniProt P01024+P27918).
T2 construct: The resulting convertase proteolytically modifies C3, producing the C3b fragment; tissue Sigma Chemical Company (serum)
The experiment in a line: C3b(Bb)-properdin binding inhibition in human serum (ELISA). The conditions noted are these: peptides; tested as described in Example 2; read-out: IC50, blocking of C3bBb binding. The procedure:
This assay was carried out as described in Example 1 above with some changes. Briefly, microtiter wells were coated with C3b, washed, blocked and incubated with various concentrations of normal human serum (NHS) (Sigma Chemical Company, Cat. No. S1764) diluted in blocking solution for 2 hours at room temperature. Under the conditions of this binding assay, factor B in serum will bind solid phase-bound C3b and, after cleavage by factor D in serum, generates C3bBb. Properdin is known to bind C3bBb with high affinity (Farries, T. C., P. J. Lachmann, and R. A. Harrison, 1988, Biochem. 252:47-54). Uncoated wells served as background controls. After washing, bound-properdin was detected with the anti-properdin antibody as described in Example 1 above.
To evaluate the effect of the blocking antibody to inhibit properdin binding to C3b(Bb), various concentrations of the blocking antibody described in Example 1 above were added to a fixed concentrations of serum (4% in blocking solution). The amount of properdin bound to C3b(Bb) was detected using the detection system described in Example 1 above.
Background: An ELISA detects its analyte on a solid surface through an enzyme-linked reagent.

The target of experiment [4] is T3, human C3b (Homo sapiens, UniProt P01024).
T3 construct: The resulting convertase proteolytically modifies C3, producing the C3b fragment; purchased Calbiochem, San Diego, Calif; 204860
Briefly: C3b-properdin binding ELISA (properdin titration on immobilized C3b). Conditions: FIG. 1, read-out: apparent binding constant (concentration of properdin needed to reach half-maximal binding to C3b). The protocol:
Polystyrene microtiter plates were coated with human C3b (0.5 μg/50 μl per well) (Calbiochem, San Diego, Calif., Cat. No. 204860) in Veronal buffered saline (VBS): (5 mM diethyl barbiturate, 120 mM NaCl, 5 mM MgCl2, 5 mM EGTA) overnight at 4° C. After aspirating the C3b solution, wells were blocked with VBS containing 0.5% human serum albumin (HSA) (Sigma Chemical Company, St. Louis, Mo., Cat. No. A9511) for 2 hours at room temperature. Wells without C3b coating served as background controls. Aliquots of human properdin (or factor P) (Advanced Research Technology, San Diego, Calif., Cat. No. A139) at varying concentrations in blocking solution were added to the wells. Following a 2 hour incubation at room temperature, the wells were extensively rinsed with VBS.
C3b-bound properdin was detected by the addition of mouse monoclonal anti-human properdin antibody (detection antibody) (Quidel, San Diego, Calif., anti-human properdin monoclonal antibody P#2, Cat. No. A235) at 1:1000 dilution in blocking solution, which was allowed to incubate for 1 hour at room temperature. […] After incubation for 10 minutes at 25° C., the reaction of TMB was quenched by the addition of 100 μl of phosphoric acid, and the plate was read at 450 nm in a microplate reader (e.g., SPECTRA MAX 250, Molecular Devices, Sunnyvale, Calif.). […]

Experiment [5] deals with Fcγ receptors on neutrophils. Briefly: Chemiluminescence assay for superoxide production in diluted whole blood. Type of experiment: cell-based. Conditions: 5 μg/ml properdin alone. An excerpt: Such agents may be screened for their ability to activate Fcγ receptors by a variety of assays known in the art. Since superoxide generation is one of the classic responses of neutrophils and other phagocytes to activation via Fcγ receptors (RII), a specific assay for superoxide release from cells in diluted whole blood was utilized to screen and evaluate agents and the possible role of Fcγ receptors in neutrophil activation by such an agent. Monoclonal antibody agents are generally ineffective aggregating agents upon binding to their antigen and thus ineffective to activate Fcγ receptors via immune complex formation. However, Fcγ activation was detected for a blocking anti-properdin monoclonal antibody as follows.
A chemiluminescence assay for superoxide production in diluted whole blood was performed (Tose, M. F. and A. Itamedani, 1992, Am. J. Clin. Pathol. 97:566-573). Fresh blood was collected by a finger prick and rapidly diluted 350-fold into phenol red-free RPMI-1640 media containing Pen-Strep which was buffered with 10 mM HEPES (pH 7.4) at 37° C. The media also contains 10 μM lucigenin (Sigma Chemical Co.), a compound which becomes chemiluminescent when reduced by superoxide. […] At regular intervals, chemiluminescence was monitored by transferring each sample into a liquid scintillation counter (Packard Model 1900 TR) operated in a single photon mode to determine the “cpm”.

Take “Ac-CRSPRWSLWS (N-terminus assumed) [peptide 2]”: the “compete with properdin for C3 binding” value in experiment [1] is reported as “compete”. Besides, the values for the IC50 in experiment [2] and in experiment [3] were 335 µM and 400 to 600 µM, respectively.

As for `CC(=O)NCC(=O)N[C@@H](CC(C)C)C(=O)N[C@@H](CS)C(=O)N[C@@H](CCC(N)=O)C(=O)N1CCC[C@H]1C(=O)N[C@@H](CS)C(=O)N[C@@H](CCCNC(=N)N)C(=O)N[C@@H](CO)C(=O)N1CCC[C@H]1C(=O)N[C@@H](CCCNC(=N)N)C(=O)O` [Peptide 1] (Ac-GLCQPCRSPR-OH; N-terminus and C-terminus assumed), in experiment [1], the “compete with properdin for C3 binding” value is “compete”. Besides, the IC50 in experiment [2] was 268 µM; in experiment [3] it was 400 to 600 µM.

In the case of “human properdin: human properdin (or factor P), Advanced Research Technology Cat. No. A139”, the Kd in experiment [4] was approximately 0.001 µM. In experiment [5], the “superoxide levels over control levels” value is “not significantly elevated”.

In the case of “Ac-RYRRCVGWNG (N-terminus assumed) [peptide 3]”, the “compete with properdin for C3 binding” value in experiment [1] is on record as “compete”. Moreover, the IC50 is 242 µM in experiment [2] and 400 to 600 µM in experiment [3].
